Several values for one entry are separate records, joined by “and”; a condition that tells them apart may be missing. Equal entries are not always repeated. Inconclusive results and toxic doses are left out.
System: CD2F1 mice, L1210 leukemia ip, survival T/C
Experiment: NCI In Vivo Anticancer Drug Screen. Data for tumor model L1210 Leukemia (intraperitoneal) in CD2F1 (CDF1) mice
Settings: endpoint: mean survival time, higher = longer survival
Summary of the method: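 Antitumor effect is scored in animals hosting a serially transplanted tumor. Values compare compound-dosed animals against vehicle-only controls as a simple quotient.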

[1] = dose: 50.0 mg/kg/injection, schedule: Q01DX009 (ip), vehicle: saline with Tween-80
[2] = dose: 100.0 mg/kg/injection, schedule: Q01DX009 (ip), vehicle: saline with Tween-80
[3] = dose: 200.0 mg/kg/injection, schedule: Q01DX009 (ip), vehicle: saline with Tween-80
[4] = dose: 100.0 mg/kg/injection, schedule: Q01DX001 (ip), vehicle: saline with Tween-80
[5] = dose: 100.0 mg/kg/injection, schedule: Q04DX002 (ip), vehicle: saline with Tween-80
[6] = dose: 100.0 mg/kg/injection, schedule: Q04DX003 (ip), vehicle: saline with Tween-80
[7] = dose: 200.0 mg/kg/injection, schedule: Q01DX001 (ip), vehicle: saline with Tween-80
[8] = dose: 200.0 mg/kg/injection, schedule: Q04DX002 (ip), vehicle: saline with Tween-80
[9] = dose: 200.0 mg/kg/injection, schedule: Q04DX003 (ip), vehicle: saline with Tween-80
[10] = dose: 400.0 mg/kg/injection, schedule: Q01DX001 (ip), vehicle: saline with Tween-80
[11] = dose: 400.0 mg/kg/injection, schedule: Q04DX002 (ip), vehicle: saline with Tween-80
[12] = dose: 400.0 mg/kg/injection, schedule: Q04DX003 (ip), vehicle: saline with Tween-80
[13] = dose: 100.0 mg/kg/injection, schedule: Q01DX001 (ip), vehicle: saline
[14] = dose: 200.0 mg/kg/injection, schedule: Q01DX001 (ip), vehicle: saline
[15] = dose: 400.0 mg/kg/injection, schedule: Q01DX001 (ip), vehicle: saline
[16] = dose: 100.0 mg/kg/injection, schedule: Q01DX009 (ip), vehicle: other
[17] = dose: 200.0 mg/kg/injection, schedule: Q01DX009 (ip), vehicle: other

For CC(C)(c1ccccn1)C(C)(C)c1ccccn1, the T/C [1] was 96 % of control, the T/C [2] was 104 % of control and the T/C [3] was 100 % of control.
In the case of O=C(NC(=S)Nc1cc(Cl)ccc1Cl)c1cccc(Br)c1, the T/C [1] is reported as 100 % of control, the T/C [4] is reported as 100 % of control and the T/C [2] is reported as 101 % of control and 105 % of control and 106 % of control. The T/C [5] was 89 % of control and 95 % of control, the T/C [6] was 94 % of control and the T/C [7] was 97 % of control. The T/C [3] was 98 % of control and 101 % of control, the T/C [8] was 90 % of control and 95 % of control and the T/C [9] was 90 % of control. The T/C [10] was 100 % of control, the T/C (dose: 400.0 mg/kg/injection, schedule: Q01DX009 (ip), vehicle: saline with Tween-80) was 115 % of control (2×) and 105 % of control and the T/C [11] was 92 % of control and 95 % of control. For the same molecule, the T/C [12] was 86 % of control.
In the case of COc1cc2c(ccc3c4cc(OC)c(OC)cc4c[n+](C)c23)cc1O, the T/C (dose: 80.0 mg/kg/injection, schedule: Q01DX009 (ip), vehicle: saline) is reported as 150 % of control, the T/C (dose: 160.0 mg/kg/injection, schedule: Q01DX009 (ip), vehicle: saline with Tween-80) is reported as 150 % of control and the T/C (dose: 160.0 mg/kg/injection, schedule: Q01DX009 (ip), vehicle: saline) is reported as 174 % of control. For the same molecule, the T/C (dose: 320.0 mg/kg/injection, schedule: Q01DX009 (ip), vehicle: saline with Tween-80) was 87 % of control and the T/C (dose: 320.0 mg/kg/injection, schedule: Q01DX009 (ip), vehicle: saline) was 86 % of control.
With COc1ccc(C(O)(CC(=O)O)c2ccc(OC)cc2)cc1 the T/C [13] was 98 % of control, the T/C [14] was 95 % of control and the T/C [15] was 97 % of control.
In the case of COc1cc(NCc2ccccc2O)c2ncccc2c1, the T/C (dose: 50.0 mg/kg/injection, schedule: Q04DX003 (ip), vehicle: saline with Tween-80) is reported as 91 % of control, the T/C [6] is reported as 91 % of control and the T/C [9] is reported as 91 % of control.
With CCOC(=O)C1C(=O)CC(c2ccccc2)C(C#N)(c2ccccc2)C1(O)c1ccccc1 (centres undefined) the T/C [5] was 90 % of control, the T/C [8] was 90 % of control and the T/C [11] was 90 % of control.
In the case of Cc1ccc(NC(=O)Oc2ccc(Br)cc2)cc1[N+](=O)[O-], the T/C [1] is reported as 98 % of control, the T/C [2] is reported as 102 % of control and the T/C [3] is reported as 98 % of control.
For Cc1ccc(C)c(NC(=O)NC2CCCCC2)c1, the T/C [4] was 98 % of control, the T/C [7] was 101 % of control and the T/C [10] was 101 % of control.
For OCC1OC(n2ccc3c2ncn2ncnc32)C(O)C1O (centres undefined), the T/C (dose: 6.25 mg/kg/injection, schedule: Q01DX005 (ip), vehicle: water) was 114 % of control, the T/C (dose: 12.5 mg/kg/injection, schedule: Q01DX005 (ip), vehicle: water) was 114 % of control and the T/C (dose: 25.0 mg/kg/injection, schedule: Q01DX005 (ip), vehicle: water) was 117 % of control. For the same molecule, the T/C (dose: 50.0 mg/kg/injection, schedule: Q01DX005 (ip), vehicle: water) was 88 % of control and 106 % of control.
For Cc1cn(C2CCC(CO)C2)c(=O)[nH]c1=O (centres undefined), the T/C (dose: 100.0 mg/kg/injection, schedule: Q01DX001 (ip), vehicle: carboxymethylcellulose (CMC)) was 95 % of control, the T/C (dose: 200.0 mg/kg/injection, schedule: Q01DX001 (ip), vehicle: carboxymethylcellulose (CMC)) was 95 % of control and the T/C (dose: 400.0 mg/kg/injection, schedule: Q01DX001 (ip), vehicle: carboxymethylcellulose (CMC)) was 103 % of control.
With CCOC(C[Se][Se]CC(OCC)OCC)OCC the T/C (dose: 3.13 mg/kg/injection, schedule: Q01DX009 (ip), vehicle: saline) was 100 % of control, the T/C (dose: 6.25 mg/kg/injection, schedule: Q01DX009 (ip), vehicle: saline) was 108 % of control and the T/C (dose: 6.25 mg/kg/injection, schedule: Q04DX003 (ip), vehicle: saline with Tween-80) was 95 % of control. The T/C (dose: 12.5 mg/kg/injection, schedule: Q04DX003 (ip), vehicle: saline with Tween-80) was 102 % of control.
CN(C)C(c1ccccc1)C(O)c1ccccc1 (centres undefined) was tested, and the T/C (dose: 75.0 mg/kg/injection, schedule: Q01DX001 (ip), vehicle: saline) was 103 % of control and the T/C (dose: 150.0 mg/kg/injection, schedule: Q01DX001 (ip), vehicle: saline) was 97 % of control.
With N#CSCc1cc(Cl)c(CSC#N)c(Cl)c1Cl the T/C (dose: 75.0 mg/kg/injection, schedule: Q04DX003 (ip), vehicle: saline) was 101 % of control, the T/C (dose: 150.0 mg/kg/injection, schedule: Q04DX003 (ip), vehicle: saline) was 96 % of control and the T/C (dose: 300.0 mg/kg/injection, schedule: Q04DX003 (ip), vehicle: saline) was 97 % of control.
CC(=O)c1cc([N+](=O)[O-])ccc1O was tested, and the T/C (dose: 25.0 mg/kg/injection, schedule: Q01DX009 (ip), vehicle: saline with Tween-80) was 90 % of control, the T/C [1] was 90 % of control and the T/C [2] was 88 % of control. For the same molecule, the T/C [6] was 97 % of control.
With c1ccc([P+](c2ccccc2)(c2ccccc2)c2ccccc2)cc1 the T/C (dose: 0.63 mg/kg/injection, schedule: Q01DX009 (ip), vehicle: saline) was 108 % of control, the T/C (dose: 1.25 mg/kg/injection, schedule: Q01DX009 (ip), vehicle: saline) was 111 % of control and the T/C (dose: 2.5 mg/kg/injection, schedule: Q01DX009 (ip), vehicle: saline) was 117 % of control. The T/C (dose: 5.0 mg/kg/injection, schedule: Q01DX009 (ip), vehicle: saline) was 122 % of control.
With O=C1C2CC=CCC2C(=O)C2CC=CCC12 (centres undefined) the T/C [4] was 92 % of control, the T/C [7] was 92 % of control and the T/C [10] was 101 % of control.
For O=C(O)CC(O)C(=O)O.[Fe] (centres undefined), the T/C [13] was 93 % of control.
With CNC(=S)Nc1ccc(C(=O)NC(C)C)cc1 the T/C (dose: 50.0 mg/kg/injection, schedule: Q01DX009 (ip), vehicle: other) was 100 % of control, the T/C [16] was 95 % of control and the T/C [17] was 97 % of control.
For CC1(C)CC2(OC2c2ccccc2)C(C)(O)c2ccccc21 (centres undefined), the T/C [16] was 105 % of control, the T/C [17] was 113 % of control and the T/C (dose: 400.0 mg/kg/injection, schedule: Q01DX009 (ip), vehicle: other) was 104 % of control.
For C=C1C(=O)OC2CCCC/C=C\C12 (centres undefined), the T/C (dose: 50.0 mg/kg/injection, schedule: Q01DX009 (ip), vehicle: saline) was 100 % of control, the T/C (dose: 100.0 mg/kg/injection, schedule: Q01DX009 (ip), vehicle: saline) was 102 % of control and the T/C (dose: 200.0 mg/kg/injection, schedule: Q01DX009 (ip), vehicle: saline) was 97 % of control.
With COc1cc2c(c(OC)c1OC)-c1cc(I)c(O)cc1[C@@H](NC(C)=O)CC2 the T/C [2] was 98 % of control.
For O=c1c2ccccc2ncn1CCc1ccncc1, the T/C [13] was 104 % of control, the T/C [14] was 101 % of control and the T/C [15] was 103 % of control.
With COC(=O)CNC(=O)C(Cc1ccc(OCc2ccccc2)cc1)NC(=O)OC(C)(C)C (centres undefined) the T/C [6] was 91 % of control, the T/C [9] was 91 % of control and the T/C [12] was 95 % of control.
COc1ccccc1N=Nc1c(O)n(-c2ccccc2OC)c(=S)n(-c2ccc(Cl)cc2)c1=O was tested, and the T/C [4] was 90 % of control and the T/C [7] was 93 % of control.
With CCCc1ccc(Nc2c3ccccc3nc3ccccc23)cc1 the T/C [5] was 107 % of control, the T/C [8] was 114 % of control and the T/C [11] was 105 % of control.
With O=C(O)CCOc1ccc(F)cc1F the T/C [5] was 86 % of control, the T/C [8] was 90 % of control and the T/C [11] was 86 % of control.
COc1nn(O)cc(C)c1=N was tested, and the T/C (dose: 6.25 mg/kg/injection, schedule: Q04DX002 (ip), vehicle: saline with Tween-80) was 93 % of control, the T/C (dose: 12.5 mg/kg/injection, schedule: Q04DX002 (ip), vehicle: saline with Tween-80) was 101 % of control and the T/C (dose: 25.0 mg/kg/injection, schedule: Q04DX002 (ip), vehicle: saline with Tween-80) was 101 % of control.
COc1cc(C=Nc2cccc(F)c2)ccc1N(CCCl)CCCl was tested, and the T/C (dose: 16.0 mg/kg/injection, schedule: Q01DX015 (ip), vehicle: saline) was 157 % of control, the T/C (dose: 25.0 mg/kg/injection, schedule: Q01DX001 (ip), vehicle: other) was 121 % of control and the T/C (dose: 50.0 mg/kg/injection, schedule: Q01DX001 (ip), vehicle: other) was 119 % of control.

Source: PubChem BioAssay AID256 (DTP/NCI, 2004)
